# Measured values reported in ChEMBL document CHEMBL3991601, “The target landscape of clinical kinase drugs” (Science, 2017).
# Calls of active or inactive are those of the source. Cut-off read from the data, not from the text of the source, for most assays here: actives have a measured Kd and inactives only a lower limit.
# Columns and labels:
# [1] = target: T1, Serine/threonine-protein kinase Chk1 (Homo sapiens, UniProt O14757)
# T1 sequence (O14757 whole entry): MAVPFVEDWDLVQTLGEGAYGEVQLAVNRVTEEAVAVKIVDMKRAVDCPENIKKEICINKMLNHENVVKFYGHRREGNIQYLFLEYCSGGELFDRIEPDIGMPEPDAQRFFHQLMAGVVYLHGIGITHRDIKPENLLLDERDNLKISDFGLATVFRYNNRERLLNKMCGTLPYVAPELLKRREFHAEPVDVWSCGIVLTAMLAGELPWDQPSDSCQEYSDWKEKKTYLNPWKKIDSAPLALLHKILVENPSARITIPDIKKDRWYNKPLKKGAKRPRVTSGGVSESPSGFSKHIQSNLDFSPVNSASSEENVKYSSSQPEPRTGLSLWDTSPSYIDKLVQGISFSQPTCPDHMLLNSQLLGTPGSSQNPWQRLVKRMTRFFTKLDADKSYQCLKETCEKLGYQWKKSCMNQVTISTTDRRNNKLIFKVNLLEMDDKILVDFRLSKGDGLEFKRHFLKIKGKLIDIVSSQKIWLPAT
# [2] = target: Insulin-like growth factor 1 receptor (Homo sapiens, UniProt P08069)
# Chain of Insulin-like growth factor 1 receptor (P08069 31-736 limits assumed): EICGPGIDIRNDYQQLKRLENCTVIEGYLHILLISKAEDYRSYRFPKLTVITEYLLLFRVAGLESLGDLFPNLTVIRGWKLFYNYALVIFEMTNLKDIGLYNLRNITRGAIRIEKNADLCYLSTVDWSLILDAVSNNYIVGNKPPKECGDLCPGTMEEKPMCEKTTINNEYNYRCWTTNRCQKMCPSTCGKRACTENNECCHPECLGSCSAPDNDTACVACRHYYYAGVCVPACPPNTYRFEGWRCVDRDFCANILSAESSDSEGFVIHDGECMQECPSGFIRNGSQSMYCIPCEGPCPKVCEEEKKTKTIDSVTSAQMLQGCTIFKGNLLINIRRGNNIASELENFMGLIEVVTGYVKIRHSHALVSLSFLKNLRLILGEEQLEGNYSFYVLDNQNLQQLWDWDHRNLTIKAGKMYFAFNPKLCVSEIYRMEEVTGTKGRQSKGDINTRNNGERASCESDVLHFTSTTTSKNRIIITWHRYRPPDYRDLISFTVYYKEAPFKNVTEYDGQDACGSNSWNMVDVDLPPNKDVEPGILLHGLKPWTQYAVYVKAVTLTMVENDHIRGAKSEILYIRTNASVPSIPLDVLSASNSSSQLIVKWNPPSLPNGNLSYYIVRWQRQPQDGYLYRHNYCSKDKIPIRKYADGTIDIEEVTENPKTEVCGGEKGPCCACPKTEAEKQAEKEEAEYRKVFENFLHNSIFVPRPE
# Chain of Insulin-like growth factor 1 receptor (P08069 741-1367 limits assumed): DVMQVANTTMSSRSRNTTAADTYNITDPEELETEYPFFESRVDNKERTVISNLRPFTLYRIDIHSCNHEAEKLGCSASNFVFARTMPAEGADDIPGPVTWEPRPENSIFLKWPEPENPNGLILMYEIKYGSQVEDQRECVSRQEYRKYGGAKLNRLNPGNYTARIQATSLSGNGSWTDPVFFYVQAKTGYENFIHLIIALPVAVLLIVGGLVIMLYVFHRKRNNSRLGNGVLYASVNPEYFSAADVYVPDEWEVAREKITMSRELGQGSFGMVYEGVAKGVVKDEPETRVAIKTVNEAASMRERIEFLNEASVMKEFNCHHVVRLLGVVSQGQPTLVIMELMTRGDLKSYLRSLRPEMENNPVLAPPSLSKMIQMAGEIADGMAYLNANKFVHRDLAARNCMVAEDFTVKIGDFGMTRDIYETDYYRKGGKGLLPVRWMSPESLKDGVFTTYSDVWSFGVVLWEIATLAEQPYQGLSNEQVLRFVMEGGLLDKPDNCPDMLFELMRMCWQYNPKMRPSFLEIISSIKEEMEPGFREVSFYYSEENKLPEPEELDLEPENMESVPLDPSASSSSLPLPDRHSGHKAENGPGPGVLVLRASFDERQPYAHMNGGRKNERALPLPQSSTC
# [3] = target: T2, Mitogen-activated protein kinase kinase kinase 3 (Homo sapiens, UniProt Q99759)
# T2 sequence (Q99759 whole entry): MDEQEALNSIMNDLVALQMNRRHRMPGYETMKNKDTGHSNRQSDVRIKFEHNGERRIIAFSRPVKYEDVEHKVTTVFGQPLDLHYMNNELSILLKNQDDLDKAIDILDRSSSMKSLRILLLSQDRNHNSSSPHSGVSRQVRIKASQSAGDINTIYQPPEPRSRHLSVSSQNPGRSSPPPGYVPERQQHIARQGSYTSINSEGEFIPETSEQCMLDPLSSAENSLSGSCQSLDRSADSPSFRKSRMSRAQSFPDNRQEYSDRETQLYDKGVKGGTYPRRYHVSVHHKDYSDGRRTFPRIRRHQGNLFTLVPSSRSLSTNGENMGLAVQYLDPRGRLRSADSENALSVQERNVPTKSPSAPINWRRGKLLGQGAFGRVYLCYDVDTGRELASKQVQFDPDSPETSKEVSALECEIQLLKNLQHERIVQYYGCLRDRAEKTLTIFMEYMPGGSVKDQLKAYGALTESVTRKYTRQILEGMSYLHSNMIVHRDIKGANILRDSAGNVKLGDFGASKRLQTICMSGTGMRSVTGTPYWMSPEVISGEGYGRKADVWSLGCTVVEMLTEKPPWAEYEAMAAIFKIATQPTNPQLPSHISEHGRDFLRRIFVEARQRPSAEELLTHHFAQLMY
# [4] = target: Mitogen-activated protein kinase kinase kinase kinase 1 (Homo sapiens, UniProt Q92918)
# Chain of Mitogen-activated protein kinase kinase kinase kinase 1 (Q92918 whole entry): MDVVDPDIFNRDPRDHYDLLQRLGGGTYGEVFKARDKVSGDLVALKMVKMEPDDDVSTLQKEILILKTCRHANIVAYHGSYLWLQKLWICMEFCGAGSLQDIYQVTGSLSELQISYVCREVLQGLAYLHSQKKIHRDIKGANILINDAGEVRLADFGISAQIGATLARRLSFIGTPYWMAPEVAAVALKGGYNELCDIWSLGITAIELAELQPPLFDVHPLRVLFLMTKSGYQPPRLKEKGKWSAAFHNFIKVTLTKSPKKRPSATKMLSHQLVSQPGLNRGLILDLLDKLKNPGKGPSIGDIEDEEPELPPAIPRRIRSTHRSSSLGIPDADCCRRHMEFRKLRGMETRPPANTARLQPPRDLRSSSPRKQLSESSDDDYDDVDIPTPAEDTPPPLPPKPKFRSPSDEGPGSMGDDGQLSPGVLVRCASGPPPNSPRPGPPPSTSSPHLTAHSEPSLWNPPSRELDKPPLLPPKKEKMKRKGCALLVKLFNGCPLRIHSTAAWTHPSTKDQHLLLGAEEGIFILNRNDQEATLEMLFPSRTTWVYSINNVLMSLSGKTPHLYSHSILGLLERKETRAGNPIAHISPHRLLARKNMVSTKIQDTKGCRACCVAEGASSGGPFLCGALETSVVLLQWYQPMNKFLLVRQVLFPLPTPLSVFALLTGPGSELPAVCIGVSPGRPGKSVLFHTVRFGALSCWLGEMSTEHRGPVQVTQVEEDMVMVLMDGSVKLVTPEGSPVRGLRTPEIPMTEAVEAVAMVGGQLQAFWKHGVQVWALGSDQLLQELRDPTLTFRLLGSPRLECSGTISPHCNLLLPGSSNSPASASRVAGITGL
# [5] = target: NADH dehydrogenase [ubiquinone] 1 alpha subcomplex subunit 13 (Homo sapiens, UniProt Q9P0J0)
# Chain of NADH dehydrogenase [ubiquinone] 1 alpha subcomplex subunit 13 (Q9P0J0 whole entry, one chain of several): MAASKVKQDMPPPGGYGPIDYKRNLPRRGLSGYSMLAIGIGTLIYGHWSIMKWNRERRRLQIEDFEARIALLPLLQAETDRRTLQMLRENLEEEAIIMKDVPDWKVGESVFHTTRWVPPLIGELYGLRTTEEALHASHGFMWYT
# [6] = target: T3, Serine/threonine-protein kinase Nek9 (Homo sapiens, UniProt Q8TD19)
# T3 sequence (Q8TD19 whole entry): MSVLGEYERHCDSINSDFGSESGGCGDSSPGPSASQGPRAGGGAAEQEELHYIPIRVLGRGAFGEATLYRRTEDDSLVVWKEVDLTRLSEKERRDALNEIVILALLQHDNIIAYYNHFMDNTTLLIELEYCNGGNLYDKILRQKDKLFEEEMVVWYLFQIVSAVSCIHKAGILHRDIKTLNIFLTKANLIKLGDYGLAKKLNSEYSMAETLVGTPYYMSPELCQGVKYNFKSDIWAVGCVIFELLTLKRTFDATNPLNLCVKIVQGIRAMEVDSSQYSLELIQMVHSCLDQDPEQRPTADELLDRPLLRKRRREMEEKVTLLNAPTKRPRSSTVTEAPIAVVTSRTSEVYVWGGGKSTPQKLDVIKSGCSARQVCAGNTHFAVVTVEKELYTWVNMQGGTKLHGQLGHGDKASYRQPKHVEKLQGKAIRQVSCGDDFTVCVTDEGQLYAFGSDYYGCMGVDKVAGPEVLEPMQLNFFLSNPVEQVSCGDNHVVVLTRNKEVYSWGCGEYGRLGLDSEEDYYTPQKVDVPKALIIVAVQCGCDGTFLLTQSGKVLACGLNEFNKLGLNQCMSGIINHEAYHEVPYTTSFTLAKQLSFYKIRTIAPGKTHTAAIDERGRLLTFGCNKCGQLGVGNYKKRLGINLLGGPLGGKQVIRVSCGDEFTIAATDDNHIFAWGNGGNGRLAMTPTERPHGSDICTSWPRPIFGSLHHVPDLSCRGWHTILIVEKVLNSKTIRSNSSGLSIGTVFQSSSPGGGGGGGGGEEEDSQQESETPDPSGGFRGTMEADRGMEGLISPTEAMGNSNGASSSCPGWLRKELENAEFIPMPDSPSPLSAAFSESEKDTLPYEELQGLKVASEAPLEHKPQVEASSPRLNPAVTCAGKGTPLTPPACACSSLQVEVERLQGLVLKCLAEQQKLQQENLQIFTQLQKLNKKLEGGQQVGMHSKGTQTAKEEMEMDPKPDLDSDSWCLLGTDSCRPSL
# [7] = target: Serine/threonine-protein kinase N2 (Homo sapiens, UniProt Q16513)
# Chain of Serine/threonine-protein kinase N2 (Q16513 whole entry): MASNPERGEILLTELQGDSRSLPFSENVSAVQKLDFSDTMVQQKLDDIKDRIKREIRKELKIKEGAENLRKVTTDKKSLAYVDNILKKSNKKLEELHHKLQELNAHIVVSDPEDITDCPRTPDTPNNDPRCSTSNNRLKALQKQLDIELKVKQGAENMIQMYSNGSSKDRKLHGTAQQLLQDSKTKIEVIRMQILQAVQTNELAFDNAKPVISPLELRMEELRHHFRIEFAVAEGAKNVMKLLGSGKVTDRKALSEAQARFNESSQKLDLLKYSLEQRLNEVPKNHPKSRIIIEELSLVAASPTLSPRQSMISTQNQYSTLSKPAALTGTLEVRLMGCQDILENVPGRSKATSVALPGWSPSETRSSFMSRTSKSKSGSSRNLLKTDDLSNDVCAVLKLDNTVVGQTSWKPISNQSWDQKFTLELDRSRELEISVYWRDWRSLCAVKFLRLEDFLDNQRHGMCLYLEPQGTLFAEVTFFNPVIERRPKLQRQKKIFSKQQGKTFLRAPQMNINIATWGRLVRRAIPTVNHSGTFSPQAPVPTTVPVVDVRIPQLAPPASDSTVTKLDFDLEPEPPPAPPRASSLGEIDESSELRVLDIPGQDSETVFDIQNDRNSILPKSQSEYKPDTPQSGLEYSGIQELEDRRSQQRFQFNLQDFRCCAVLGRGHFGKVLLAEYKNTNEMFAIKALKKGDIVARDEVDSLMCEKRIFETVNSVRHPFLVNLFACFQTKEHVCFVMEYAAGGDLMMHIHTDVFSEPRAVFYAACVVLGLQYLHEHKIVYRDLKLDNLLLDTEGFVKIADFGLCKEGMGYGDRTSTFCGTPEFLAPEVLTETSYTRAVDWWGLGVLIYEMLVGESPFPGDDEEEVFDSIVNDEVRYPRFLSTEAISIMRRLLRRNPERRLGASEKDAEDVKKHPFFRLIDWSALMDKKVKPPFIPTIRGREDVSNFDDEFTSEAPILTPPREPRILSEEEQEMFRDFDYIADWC
# [8] = target: T4, TGF-beta receptor type-1 (Homo sapiens, UniProt P36897)
# T4 sequence (P36897 whole entry): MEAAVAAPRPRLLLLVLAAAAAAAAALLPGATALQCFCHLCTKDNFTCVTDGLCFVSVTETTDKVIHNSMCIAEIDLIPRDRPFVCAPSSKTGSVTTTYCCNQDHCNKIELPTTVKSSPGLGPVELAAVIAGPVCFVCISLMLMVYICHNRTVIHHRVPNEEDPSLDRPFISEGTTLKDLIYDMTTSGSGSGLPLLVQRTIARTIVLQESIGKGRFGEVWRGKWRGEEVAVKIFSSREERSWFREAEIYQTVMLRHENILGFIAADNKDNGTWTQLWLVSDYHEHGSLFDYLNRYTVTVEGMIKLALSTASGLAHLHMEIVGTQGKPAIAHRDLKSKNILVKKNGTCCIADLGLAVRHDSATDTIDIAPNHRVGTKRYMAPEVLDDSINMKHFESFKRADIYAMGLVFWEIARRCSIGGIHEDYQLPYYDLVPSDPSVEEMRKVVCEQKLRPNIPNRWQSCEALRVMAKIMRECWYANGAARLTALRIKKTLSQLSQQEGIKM
# [9] = target: TRAF2 and NCK-interacting protein kinase (Homo sapiens, UniProt Q9UKE5)
# Chain of TRAF2 and NCK-interacting protein kinase (Q9UKE5 whole entry): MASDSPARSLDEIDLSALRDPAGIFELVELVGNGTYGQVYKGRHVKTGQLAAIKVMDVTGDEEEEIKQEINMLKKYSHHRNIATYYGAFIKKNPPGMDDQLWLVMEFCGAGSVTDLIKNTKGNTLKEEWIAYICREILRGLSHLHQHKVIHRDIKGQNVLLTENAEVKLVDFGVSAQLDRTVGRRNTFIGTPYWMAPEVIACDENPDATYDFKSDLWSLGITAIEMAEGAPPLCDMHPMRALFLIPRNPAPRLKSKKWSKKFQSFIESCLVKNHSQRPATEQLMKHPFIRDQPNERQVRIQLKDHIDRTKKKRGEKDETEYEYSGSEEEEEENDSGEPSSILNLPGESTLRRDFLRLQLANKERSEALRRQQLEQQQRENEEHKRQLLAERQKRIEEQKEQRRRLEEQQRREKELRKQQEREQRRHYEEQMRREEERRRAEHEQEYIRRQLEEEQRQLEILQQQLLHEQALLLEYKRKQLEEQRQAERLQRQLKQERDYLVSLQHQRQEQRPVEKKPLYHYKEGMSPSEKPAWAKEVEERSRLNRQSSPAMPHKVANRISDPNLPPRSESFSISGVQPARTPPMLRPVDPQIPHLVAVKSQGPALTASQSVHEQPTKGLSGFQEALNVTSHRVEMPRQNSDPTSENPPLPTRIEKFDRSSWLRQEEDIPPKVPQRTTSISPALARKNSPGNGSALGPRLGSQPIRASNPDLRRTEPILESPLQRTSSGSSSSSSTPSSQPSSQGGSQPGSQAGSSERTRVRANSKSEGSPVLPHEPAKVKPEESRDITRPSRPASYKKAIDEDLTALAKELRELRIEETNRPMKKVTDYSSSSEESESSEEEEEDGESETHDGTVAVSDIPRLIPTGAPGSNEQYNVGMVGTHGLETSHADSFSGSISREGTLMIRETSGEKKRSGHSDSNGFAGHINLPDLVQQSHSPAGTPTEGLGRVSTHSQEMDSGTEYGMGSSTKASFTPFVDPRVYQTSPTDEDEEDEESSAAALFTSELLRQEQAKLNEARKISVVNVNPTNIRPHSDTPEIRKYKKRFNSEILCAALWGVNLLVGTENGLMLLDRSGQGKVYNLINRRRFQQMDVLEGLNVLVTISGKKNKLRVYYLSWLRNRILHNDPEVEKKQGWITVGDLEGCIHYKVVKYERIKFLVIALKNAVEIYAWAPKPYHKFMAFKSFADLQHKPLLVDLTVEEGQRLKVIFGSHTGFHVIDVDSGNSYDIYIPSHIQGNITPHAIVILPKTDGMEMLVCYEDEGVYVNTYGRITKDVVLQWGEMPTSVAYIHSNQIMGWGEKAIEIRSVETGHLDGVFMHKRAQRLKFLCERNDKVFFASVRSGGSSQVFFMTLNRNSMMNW
# Note: in the data inactive means no Kd found up to 30 µM.
Kd [1],Kd [2],Kd [3],Kd [4],Kd [5],Kd [7],Kd [8],Kd [9],Compound,Kd [6]
> 30 µM (inactive),> 30 µM (inactive),> 30 µM (inactive),> 30 µM (inactive),> 30 µM (inactive),> 30 µM (inactive),> 30 µM (inactive),> 30 µM (inactive),O=c1[nH]c([C@@H]2CCCN2)nc2c1oc1ccc(Cl)cc12,> 30 µM (inactive)
6.17 µM (active),> 30 µM (inactive),> 30 µM (inactive),> 30 µM (inactive),> 30 µM (inactive),> 30 µM (inactive),> 30 µM (inactive),> 30 µM (inactive),O=C(O)c1ccc2c(c1)nc(Nc1cccc(Cl)c1)c1ccncc12 [SILMITASERTIB],> 30 µM (inactive)
> 30 µM (inactive),> 30 µM (inactive),> 30 µM (inactive),> 30 µM (inactive),> 30 µM (inactive),> 30 µM (inactive),> 30 µM (inactive),> 30 µM (inactive),CC[C@@](C)(Nc1ccnc(-c2c[nH]c3ncccc23)n1)C(=O)NCC(F)(F)F [DECERNOTINIB],> 30 µM (inactive)
> 30 µM (inactive),> 30 µM (inactive),> 30 µM (inactive),> 30 µM (inactive),> 30 µM (inactive),> 30 µM (inactive),> 30 µM (inactive),> 30 µM (inactive),CCc1cc2c(cc1N1CCC(N3CCOCC3)CC1)C(C)(C)c1[nH]c3cc(C#N)ccc3c1C2=O [ALECTINIB],> 30 µM (inactive)
> 30 µM (inactive),> 30 µM (inactive),> 30 µM (inactive),> 30 µM (inactive),> 30 µM (inactive),> 30 µM (inactive),> 30 µM (inactive),> 30 µM (inactive),COc1cc2ncnc(Nc3ccc(F)c(Cl)c3)c2cc1NC(=O)/C=C/CN1CCCCC1 [DACOMITINIB ANHYDROUS],> 30 µM (inactive)
> 30 µM (inactive),> 30 µM (inactive),> 30 µM (inactive),> 30 µM (inactive),> 30 µM (inactive),> 30 µM (inactive),> 30 µM (inactive),> 30 µM (inactive),C#Cc1cccc(Nc2ncnc3cc4c(cc23)OCCOCCOCCO4)c1 [ICOTINIB],> 30 µM (inactive)
> 30 µM (inactive),> 30 µM (inactive),> 30 µM (inactive),> 30 µM (inactive),> 30 µM (inactive),> 30 µM (inactive),> 30 µM (inactive),> 30 µM (inactive),COc1ccc2c(OCc3nnc4ccc(-c5ccccc5)nn34)ccnc2c1 [AMG-208],> 30 µM (inactive)
> 30 µM (inactive),> 30 µM (inactive),> 30 µM (inactive),> 30 µM (inactive),> 30 µM (inactive),> 30 µM (inactive),> 30 µM (inactive),> 30 µM (inactive),CC(C)(O)CC(=O)NCCn1ccc2ncnc(Nc3ccc(Oc4cccc(C(F)(F)F)c4)c(Cl)c3)c21 [TAK-285],> 30 µM (inactive)
> 30 µM (inactive),> 30 µM (inactive),> 30 µM (inactive),> 30 µM (inactive),> 30 µM (inactive),> 30 µM (inactive),> 30 µM (inactive),> 30 µM (inactive),CNC(=O)c1cccc(-c2ccc3c(N4CCOC[C@@H]4C)nc(N4CCOC[C@@H]4C)nc3n2)c1 [VISTUSERTIB],> 30 µM (inactive)
> 30 µM (inactive),> 30 µM (inactive),> 30 µM (inactive),> 30 µM (inactive),> 30 µM (inactive),> 30 µM (inactive),> 30 µM (inactive),> 30 µM (inactive),COc1cc2ncnc3c2cc1OCCCCCN(C)Cc1ccc(Br)cc1N3 [JNJ-26483327],> 30 µM (inactive)
> 30 µM (inactive),> 30 µM (inactive),> 30 µM (inactive),> 30 µM (inactive),> 30 µM (inactive),> 30 µM (inactive),> 30 µM (inactive),> 30 µM (inactive),COc1cc2nccc(Oc3ccc(NC(=O)C4(C(=O)Nc5ccc(F)cc5)CC4)cc3)c2cc1OC [CABOZANTINIB],> 30 µM (inactive)

Compound,Kd [1],Kd [2],Kd [3],Kd [4],Kd [5],Kd [7],Kd [8],Kd [9],Kd [6]
CC1(COc2ccc3c(c2)ncn3-c2ccc3cccc(N4CCC(N)CC4)c3n2)COC1 [CRENOLANIB],> 30 µM (inactive),> 30 µM (inactive),> 30 µM (inactive),> 30 µM (inactive),> 30 µM (inactive),1.21 µM (active),> 30 µM (inactive),0.107 µM,> 30 µM (inactive)
COCCN1CCN(Cc2ccc(-c3n[nH]c4c3C(=O)c3c(NC(=O)NN5CCOCC5)cccc3-4)cc2)CC1 [RGB-286638],> 30 µM (inactive),> 30 µM (inactive),> 30 µM (inactive),> 30 µM (inactive),> 30 µM (inactive),> 30 µM (inactive),> 30 µM (inactive),> 30 µM (inactive),> 30 µM (inactive)
Cc1c(Cn2c(C)nc3c(C(=O)O)cc(N4CCOCC4)cc32)cccc1C(F)(F)F [GSK-2636771],> 30 µM (inactive),> 30 µM (inactive),> 30 µM (inactive),> 30 µM (inactive),> 30 µM (inactive),> 30 µM (inactive),> 30 µM (inactive),> 30 µM (inactive),> 30 µM (inactive)
NC[C@@](O)(c1ccc(Cl)cc1)c1ccc(-c2cn[nH]c2)cc1 [AT-13148],> 30 µM (inactive),> 30 µM (inactive),> 30 µM (inactive),> 30 µM (inactive),> 30 µM (inactive),0.009 µM (active),> 30 µM (inactive),> 30 µM (inactive),> 30 µM (inactive)
